The target of the test is PAI-1 (Homo sapiens, UniProt P05121). Kind of test: PAI chromogenic substrate assay (first S2251 assay, tPA/plasminogen system). It counts as biochemical. The protocol:
In this assay, a compound is incubated with PAI-1 prior to addition to the tPA assay system. Inhibition of PAI-1 results in the production of plasmin from plasminogen. In turn, plasmin cleaves the chromogenic substrate S2251 (Kabi Vitrum) producing pNA (p-nitroaniline) which is detected spectrophotometrically at 405 nm (K. Nilsson et al, Fibrinolysis (1987) 1, 163-168).
Compounds of formula (A) were tested in a PAI chromogenic substrate assay. In the first assay (K. Nilsson, Fibrinolysis (1987) 1, 163-168) each compound was incubated with PAI-1 prior to addition to the tPA assay system. […] In turn, the plasmin cleaved the chromogenic substrate S2251 (Kabi-Vitrum) producing pNA (p-nitroaniline) which was detected spectrophotometrically at 405 nm.

Sequence of PAI-1 (P05121 24-402): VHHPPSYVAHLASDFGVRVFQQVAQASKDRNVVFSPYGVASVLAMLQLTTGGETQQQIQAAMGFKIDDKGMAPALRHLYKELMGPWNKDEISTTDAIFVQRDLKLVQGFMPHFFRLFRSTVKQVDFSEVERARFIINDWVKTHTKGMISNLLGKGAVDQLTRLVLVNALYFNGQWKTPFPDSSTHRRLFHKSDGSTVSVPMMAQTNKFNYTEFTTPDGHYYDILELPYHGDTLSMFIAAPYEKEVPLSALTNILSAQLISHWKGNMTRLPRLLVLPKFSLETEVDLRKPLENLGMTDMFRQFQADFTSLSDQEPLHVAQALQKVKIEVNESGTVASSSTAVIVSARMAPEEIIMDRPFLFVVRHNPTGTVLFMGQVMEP

As for `COc1ccc(/C=c2\[nH]c(=O)/c(=C/c3ccccc3)[nH]c2=O)cc1` [Compound 3, (3Z,6Z,)-6-benylidene-3-(4-methoxybenzylidene)-2,5-piperazinedione], the Inhibition of PAI-1 in the first S2251 chromogenic substrate assay runs as follows: (Concentration 6 μm) 14%; (Concentration 12 μm) 40%; (Concentration 25 μm) 53%; (Concentration 50 μm) 74%; (Concentration 100 μm) 86%.

As for `O=c1[nH]/c(=C\c2c(Cl)cccc2Cl)c(=O)[nH]/c1=C\c1ccccc1` [Compound 21, (3Z,6Z)-6-Benzylidene-3-(2,6-dichlorobenzylidene)-2,5-piperazinedione], the Inhibition of PAI-1 in the first S2251 chromogenic substrate assay (Concentration 6.25 μm) amounted to 0%; the Inhibition of PAI-1 in the first S2251 chromogenic substrate assay (Concentration 12.5 μm) turned out to be 0%; the Inhibition of PAI-1 in the first S2251 chromogenic substrate assay (Concentration 25 μm) was 2%; the Inhibition of PAI-1 in the first S2251 chromogenic substrate assay (Concentration 50 μm) was 35%; the Inhibition of PAI-1 in the first S2251 chromogenic substrate assay (Concentration 100 μm) is 79%.

In turn, `O=c1[nH]c(=Cc2ccccc2)c(=O)[nH]c1=Cc1ccccc1` [Compound 22, 3,6-Dibenzylidene-2,5-piperazinedione] yielded an Inhibition of PAI-1 in the first S2251 chromogenic substrate assay (Concentration 6.25 μm) of 0%; an Inhibition of PAI-1 in the first S2251 chromogenic substrate assay (Concentration 12.5 μm) of 0%; an Inhibition of PAI-1 in the first S2251 chromogenic substrate assay (Concentration 25 μm) of 1%; an Inhibition of PAI-1 in the first S2251 chromogenic substrate assay (Concentration 50 μm) of 2%; an Inhibition of PAI-1 in the first S2251 chromogenic substrate assay (Concentration 100 μm) of 61%.

Take `CC(=O)Oc1ccc(/C=c2\[nH]c(=O)/c(=C/c3ccccc3)[nH]c2=O)cc1` [Compound 23, (3Z,6Z)-3-(4-Acetoxybenzylidene)-6-benzylidene-2,5-piperazinedione]: the Inhibition of PAI-1 in the first S2251 chromogenic substrate assay is, setting by setting: (Concentration 7.5 μm) 0%; (Concentration 15 μm) 0%; (Concentration 30 μm) 17%; (Concentration 60 μm) 65%.

Regarding `O=c1[nH]/c(=C\c2cccc([N+](=O)[O-])c2)c(=O)[nH]/c1=C\c1ccccc1` [Compound 24, (3Z,6Z)-6-Benzylidene-3-(3-nitrobenzylidene)-2,5-piperazinedione], the Inhibition of PAI-1 in the first S2251 chromogenic substrate assay reads like this: (Concentration 3.75 μm) 0%; (Concentration 7.5 μm) 0%; (Concentration 15 μm) 0%; (Concentration 30 μm) 29%; (Concentration 60 μm) 56%.

On to `CCOc1ccc(/C=c2\[nH]c(=O)/c(=C/c3ccccc3)[nH]c2=O)cc1` [Compound 25, (3Z,6Z)-6-Benzylidene-3-(4-ethoxybenzylidene)-2,5-piperazinedione], for which the Inhibition of PAI-1 in the first S2251 chromogenic substrate assay is, setting by setting: (Concentration 6.25 μm) 0%; (Concentration 12.5 μm) 0%; (Concentration 25 μm) 1%; (Concentration 50 μm) 25%; (Concentration 100 μm) 52%.

Regarding `COc1ccc(/C=c2\[nH]c(=O)/c(=C/c3ccc(NC(C)=O)cc3)[nH]c2=O)cc1` [Compound 26, (3Z,6Z)-3-(4-Acetamidobenzylidene)-6-(4-methoxybenzylidene)-2,5-piperazinedione], the Inhibition of PAI-1 in the first S2251 chromogenic substrate assay stood at 42% (Concentration 7.5 μm), 73% (Concentration 15 μm), 71% (Concentration 30 μm) and 57% (Concentration 60 μm).

In the case of `COc1ccc(/C=c2\[nH]c(=O)/c(=C/c3ccc4ccccc4c3)[nH]c2=O)cc1` [Compound 27, (3Z,6Z)-3-(4-Methoxybenzylidene)-6-(2-naphthylmethylene)-2,5-piperazinedione], the Inhibition of PAI-1 in the first S2251 chromogenic substrate assay is 9% (Concentration 12.5 μm), 8% (Concentration 25 μm), 35% (Concentration 50 μm) and 70% (Concentration 100 μm).

Consider `COc1ccc(/C=c2\[nH]c(=O)/c(=C/c3ccccc3[N+](=O)[O-])[nH]c2=O)cc1` [Compound 28, (3Z,6Z)-6-(4-Methoxybenzylidene)-3-(2-nitrobenzylidene)-2,5-piperazinedione], for which the Inhibition of PAI-1 in the first S2251 chromogenic substrate assay turned out to be 0% (Concentration 6.25 μm); 1% (Concentration 12.5 μm); 45% (Concentration 25 μm); 74% (Concentration 50 μm); 71% (Concentration 100 μm).

On to `COc1ccc(/C=c2\[nH]c(=O)/c(=C/c3c(Cl)cccc3Cl)[nH]c2=O)cc1` [Compound 29, (3Z,6Z)-3-(2,6-Dichlorobenzylidene)-6-(4-methoxybenzylidene)-2,5-piperazinedione], for which the Inhibition of PAI-1 in the first S2251 chromogenic substrate assay is, setting by setting: (Concentration 6.25 μm) 0%; (Concentration 12.5 μm) 1%; (Concentration 25 μm) 34%; (Concentration 50 μm) 76%; (Concentration 100 μm) 80%.

Turning to `Nc1ccc(/C=c2\[nH]c(=O)/c(=C/c3ccccc3)[nH]c2=O)cc1` [Compound 30, (3Z,6Z)-3-(4-Aminobenzylidene)-6-benzylidene-2,5-piperazinedione], the Inhibition of PAI-1 in the first S2251 chromogenic substrate assay was 2% (Concentration 12.5 μm), 5% (Concentration 25 μm), 23% (Concentration 50 μm) and 66% (Concentration 100 μm).

Consider `CC(=O)Oc1cccc(/C=c2\[nH]c(=O)/c(=C/c3ccccc3)[nH]c2=O)c1` [Compound 31, (3Z,6Z)-3-(3-Acetoxybenzylidene)-6-benzylidene-2,5-piperazinedione], for which the Inhibition of PAI-1 in the first S2251 chromogenic substrate assay (Concentration 6.25 μm) is 0%; the Inhibition of PAI-1 in the first S2251 chromogenic substrate assay (Concentration 12.5 μm) was 1%; the Inhibition of PAI-1 in the first S2251 chromogenic substrate assay (Concentration 25 μm) was found to be 2%; the Inhibition of PAI-1 in the first S2251 chromogenic substrate assay (Concentration 50 μm) was determined as 12%; the Inhibition of PAI-1 in the first S2251 chromogenic substrate assay (Concentration 100 μm) worked out at 58%.

`CC(=O)Oc1ccccc1/C=c1\[nH]c(=O)/c(=C/c2ccccc2)[nH]c1=O` [Compound 32, (3Z,6Z)-3-(2-Acetoxybenzylidene)-6-benzylidene-2,5-piperazinedione]: the Inhibition of PAI-1 in the first S2251 chromogenic substrate assay reads like this: (Concentration 6.25 μm) 0%; (Concentration 12.5 μm) 1%; (Concentration 25 μm) 3%; (Concentration 50 μm) 36%; (Concentration 100 μm) 87%.

In the case of `O=c1[nH]/c(=C\c2cccc(O)c2)c(=O)[nH]/c1=C\c1ccccc1` [Compound 33, (3Z,6Z)-6-Benzylidene-3-(3-hydroxybenzylidene)-2,5-piperazinedione], the Inhibition of PAI-1 in the first S2251 chromogenic substrate assay was found to be 0% (Concentration 6.25 μm); 1% (Concentration 12.5 μm); 1% (Concentration 25 μm); 3% (Concentration 50 μm); 56% (Concentration 100 μm).

Consider `CC(=O)Nc1ccc(/C=c2\[nH]c(=O)/c(=C/c3ccccc3)[nH]c2=O)cc1` [Compound 34, (3Z,6Z)-3-(4-Acetamidobenzylidene)-6-benzylidene-2,5-piperazinedione], for which the Inhibition of PAI-1 in the first S2251 chromogenic substrate assay runs as follows: (Concentration 7.5 μm) 24%; (Concentration 15 μm) 76%; (Concentration 30 μm) 77%; (Concentration 60 μm) 72%.

Consider `O=c1[nH]/c(=C\c2cccc([N+](=O)[O-])c2)c(=O)[nH]/c1=C\c1cccc([N+](=O)[O-])c1` [Compound 35, (3Z,6Z)-3,6-Di-(3-Nitrobenzylidene)-2,5-piperazinedione], for which the Inhibition of PAI-1 in the first S2251 chromogenic substrate assay reads like this: (Concentration 25 μm) 2%; (Concentration 50 μm) 28%; (Concentration 100 μm) 52%.

In the case of `COc1ccc(/C=c2\[nH]c(=O)/c(=C/c3ccc(O)cc3)[nH]c2=O)cc1` [Compound 36, (3Z,6Z)-3-(4-Hydroxybenzylidene)-6-(4-methoxybenzylidene)-2,5-piperazinedione], the Inhibition of PAI-1 in the first S2251 chromogenic substrate assay (Concentration 25 μm) worked out at 1%, the Inhibition of PAI-1 in the first S2251 chromogenic substrate assay (Concentration 50 μm) worked out at 6% and the Inhibition of PAI-1 in the first S2251 chromogenic substrate assay (Concentration 100 μm) came to 71%.

Turning to `COc1ccc(/C=c2\[nH]c(=O)/c(=C/c3ccc(OC(C)=O)cc3)[nH]c2=O)cc1` [Compound 37, (3Z,6Z)-3-(4-Acetoxybenzylidene)-6-(4-methoxybenzylidene)-2,5-piperazinedione], the Inhibition of PAI-1 in the first S2251 chromogenic substrate assay came to 2% (Concentration 25 μm), 19% (Concentration 50 μm) and 69% (Concentration 100 μm).

As to `CC(=O)Nc1ccccc1/C=c1\[nH]c(=O)/c(=C/c2ccccc2)[nH]c1=O` [Compound 38, (3Z,6Z)-3-(2-Acetamidobenzylidene)-6-benzylidene-2,5-piperazinedione], the Inhibition of PAI-1 in the first S2251 chromogenic substrate assay came to 1% (Concentration 6.25 μm); 1% (Concentration 12.5 μm); 1% (Concentration 25 μm); 3% (Concentration 50 μm); 64% (Concentration 100 μm).

The values above are taken from patent US5700804A, “Pharmaceutical compounds” (Xenova Limited, priority 1992, dated 1997).
